Data: patent US7049323B2, “Amidoheterocycles as modulators of the melanocortin-4 receptor” (Bristol-Myers Squibb Company, priority 2003, dated 2006)

Target: T1, cloned human MC4R receptors (Homo sapiens, UniProt P32245)
T1 construct: expressed in transfected cells; host or cells: Hi5 insect cells or HEK-293 cells (baculovirus/human MC4R receptor construct); membranes
Assay: Melanocortin MC4R membrane binding assay ([125I]NDP-α-MSH competition)
Conditions: [125I]NDP-α-MSH 0.1 nM, membranes of Hi5 insect cells or HEK-293 cells, 90 minutes at 37° C.
Experimental: Melanocortin MC4R Binding Assay. […] A membrane binding assay was used to identify competitive ligands of [^125I]NDP-α-MSH binding to cloned human MC4R receptors expressed in Hi5 insect cells or HEK-293 cells transfected by a baculovirus/human MC4R receptor construct. The membrane binding buffer was composed of 25 mM HEPES, pH 7.4, 140 mM NaCl, 1.2 mM MgCl2, 2.5 mM CaCl2, and 0.1% BSA Membrane protein (0.5 μg) and [^125I]-NDP-α-MSH (to a final concentration of 0.1 nM) were added. Competing ligands or a buffer blank were added and incubated for 90 minutes at 37° C. After filtration, the cell membranes were evaluated in a Wallac Microbeta Trilux Scintillation and Luminescence Counter (Model 1450). Dose-response cureves were fitted by […] analyses and IC50 values are calculated using ExcelFit.

T1 sequence (P32245 whole entry): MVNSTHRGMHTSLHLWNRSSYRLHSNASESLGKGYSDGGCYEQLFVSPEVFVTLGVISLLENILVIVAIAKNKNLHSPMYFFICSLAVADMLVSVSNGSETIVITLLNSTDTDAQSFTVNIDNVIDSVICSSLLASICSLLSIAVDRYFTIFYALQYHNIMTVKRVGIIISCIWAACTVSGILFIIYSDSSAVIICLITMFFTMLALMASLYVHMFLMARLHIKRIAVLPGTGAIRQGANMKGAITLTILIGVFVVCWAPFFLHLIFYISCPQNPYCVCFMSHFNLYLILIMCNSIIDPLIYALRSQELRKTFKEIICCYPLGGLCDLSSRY

| SMILES | IC50 [nM] |
| --- | --- |
| CCCC(=O)N(C1CCCC1)C1CN(C(=O)[C@@H](Cc2ccc(Cl)cc2)NC(=O)CCN(C)C)C1 [Example 1] | 250 to 1000 |
| CCCC(=O)N(C1CCCCC1)C1CN(C(=O)[C@@H](Cc2ccc(Cl)cc2)NC(=O)CCN(C)C)C1 [Example 2] | < 250 |
| CCCC(=O)N(C1CCCCCC1)C1CN(C(=O)[C@@H](Cc2ccc(Cl)cc2)NC(=O)CCN(C)C)C1 [Example 3] | 250 to 1000 |
| CN(C)CCC(=O)N[C@H](Cc1ccc(Cl)cc1)C(=O)N1CC(N(C2CCCCC2)S(C)(=O)=O)C1 [Example 4] | 250 to 1000 |
| CN(C)CCC(=O)N[C@H](Cc1ccc(Cl)cc1)C(=O)N1CC(N(C2CCCCC2)S(=O)(=O)c2ccccc2)C1 [Example 5] | 250 to 1000 |
| CN(C)CCC(=O)N[C@H](Cc1ccc(Cl)cc1)C(=O)N1CC(N(C(=O)c2ccno2)C2CCCCC2)C1 [Example 6] | 1000 to 10000 |
| CN(C)CCC(=O)N[C@H](Cc1ccc(Cl)cc1)C(=O)N1CC(N(C(=O)C2CCC2)C2CCCCC2)C1 [Example 7] | 250 to 1000 |
| CN(C)CCC(=O)N[C@H](Cc1ccc(Cl)cc1)C(=O)N1CC(N(C(=O)CC2CCCC2)C2CCCCC2)C1 [Example 8] | 250 to 1000 |
| CN(C)CCC(=O)N[C@H](Cc1ccc(Cl)cc1)C(=O)N1CC(N(C(=O)CC(C)(C)C)C2CCCCC2)C1 [Example 9] | 250 to 1000 |
| CN(C)CCC(=O)N[C@H](Cc1ccc(Cl)cc1)C(=O)N1CC(N(C(=O)Cc2ccccc2)C2CCCCC2)C1 [Example 10] | 250 to 1000 |
| CCCCC(=O)N(C1CCCCC1)C1CN(C(=O)[C@@H](Cc2ccc(Cl)cc2)NC(=O)CCN(C)C)C1 [Example 11] | 250 to 1000 |
| CN(C)CCC(=O)N[C@H](Cc1ccc(Cl)cc1)C(=O)N1CC(N(C(=O)c2cc3ccccc3s2)C2CCCCC2)C1 [Example 12] | 250 to 1000 |
| CN(C)CCC(=O)N[C@H](Cc1ccc(Cl)cc1)C(=O)N1CC(N(C(=O)COc2ccccc2)C2CCCCC2)C1 [Example 13] | 1000 to 10000 |
| CC(C)CC(=O)N(C1CCCCC1)C1CN(C(=O)[C@@H](Cc2ccc(Cl)cc2)NC(=O)CCN(C)C)C1 [Example 14] | < 250 |
| CCCCCC(=O)N(C1CCCCC1)C1CN(C(=O)[C@@H](Cc2ccc(Cl)cc2)NC(=O)CCN(C)C)C1 [Example 15] | 250 to 1000 |
| CN(C)CCC(=O)N[C@H](Cc1ccc(Cl)cc1)C(=O)N1CC(N(C(=O)C2CCCC2)C2CCCCC2)C1 [Example 16] | < 250 |
| O=C(N[C@H](Cc1ccc(Cl)cc1)C(=O)N1CCC(N(C(=O)c2ccno2)C2CCCCC2)C1)[C@H]1Cc2ccccc2CN1 (stereo partly shown) [Example 17] | < 250 |
| O=C(N[C@H](Cc1ccc(Cl)cc1)C(=O)N1CC[C@H](N(C(=O)c2ccno2)C2CCCCC2)C1)[C@H]1Cc2ccccc2CN1 [Example 18] | < 250 |
| O=C(N[C@H](Cc1ccc(Cl)cc1)C(=O)N1CC[C@@H](N(C(=O)c2ccno2)C2CCCCC2)C1)[C@H]1Cc2ccccc2CN1 [Example 19] | 250 to 1000 |
| NCCC(=O)N[C@H](Cc1ccc(Cl)cc1)C(=O)N1CC[C@H](N(C(=O)c2ccno2)C2CCCCC2)C1 [Example 22] | < 250 |

| SMILES | IC50 [nM] |
| --- | --- |
| NCCC(=O)N[C@H](Cc1ccc(Cl)cc1)C(=O)N1CC[C@@H](N(C(=O)c2ccno2)C2CCCCC2)C1 [Example 23] | 1000 to 10000 |
| NCCC(=O)N[C@H](Cc1ccc(Cl)cc1)C(=O)N1CC[C@H](N(C(=O)c2ccco2)C2CCCCC2)C1 [Example 24] | 1000 to 10000 |
| NCCC(=O)N[C@H](Cc1ccc(Cl)cc1)C(=O)N1CC[C@@H](N(C(=O)c2ccccc2)C2CCCCC2)C1 [Example 25] | 250 to 1000 |
| NCCC(=O)N[C@H](Cc1ccc(Cl)cc1)C(=O)N1CC[C@H](N(C(=O)c2ccco2)C2CCCCC2)C1 [Example 26] | < 250 |
| NCCC(=O)N[C@H](Cc1ccc(Cl)cc1)C(=O)N1CC[C@H](N(C(=O)c2ccccc2)C2CCCCC2)C1 [Example 27] | < 250 |
| NCCC(=O)N[C@H](Cc1ccc(Cl)cc1)C(=O)N1CC[C@H](N(C(=O)c2cnccn2)C2CCCCC2)C1 [Example 28] | 250 to 1000 |
| NCCC(=O)N[C@H](Cc1ccc(Cl)cc1)C(=O)N1CC[C@H](N(C(=O)c2ccoc2)C2CCCCC2)C1 [Example 29] | < 250 |
| CCCC(=O)N(C1CCCCC1)[C@H]1CCN(C(=O)[C@@H](Cc2ccc(Cl)cc2)NC(=O)CCN)C1 [Example 30] | < 250 |
| COCC(=O)N(C1CCCCC1)[C@H]1CCN(C(=O)[C@@H](Cc2ccc(Cl)cc2)NC(=O)CCN)C1 [Example 31] | 250 to 1000 |
| CC(C)(C)C(=O)N(C1CCCCC1)[C@H]1CCN(C(=O)[C@@H](Cc2ccc(Cl)cc2)NC(=O)CCN)C1 [Example 32] | < 250 |
| NCCC(=O)N[C@H](Cc1ccc(Cl)cc1)C(=O)N1CC[C@H](N(C(=O)CC2CCCC2)C2CCCCC2)C1 [Example 33] | < 250 |
| Cc1noc(C)c1C(=O)N(C1CCCCC1)[C@H]1CCN(C(=O)[C@@H](Cc2ccc(Cl)cc2)NC(=O)CCN)C1 [Example 34] | < 250 |
| CS(=O)(=O)N(C1CCCCC1)[C@H]1CCN(C(=O)[C@@H](Cc2ccc(Cl)cc2)NC(=O)[C@H]2Cc3ccccc3CN2)C1 [Example 35] | < 250 |
| CC(C)N(C(=O)c1ccco1)[C@@H]1CCN(C(=O)[C@@H](Cc2ccc(Cl)cc2)NC(=O)CCN)C1 [Example 36] | 1000 to 10000 |
| CC(C)N(C(=O)c1ccco1)[C@H]1CCN(C(=O)[C@@H](Cc2ccc(Cl)cc2)NC(=O)[C@H]2Cc3ccccc3CN2)C1 [Example 38] | 250 to 1000 |
| CS(=O)(=O)N(C1CCCCC1)[C@H]1CCN(C(=O)[C@@H](Cc2ccc(Cl)cc2)NC(=O)CCN)C1 [Example 39] | 250 to 1000 |
| CS(=O)(=O)N(C1CCCCC1)[C@H]1CCN(C(=O)[C@@H](Cc2ccc(Cl)cc2)NC(=O)[C@@H]2CNCCN2)C1 [Example 40] | 250 to 1000 |
| CC(C)CC(=O)N(C(C)C)[C@H]1CCN(C(=O)[C@@H](Cc2ccc(Cl)cc2)NC(=O)[C@@H]2CNCCN2)C1 [Example 42] | 250 to 1000 |
| CC(=O)N(C1CCCCC1)[C@H]1CCN(C(=O)[C@@H](Cc2ccc(Cl)cc2)NC(=O)CCN)C1 [Example 43] | 1000 to 10000 |
| NCCC(=O)N[C@H](Cc1ccc(Cl)cc1)C(=O)N1CC[C@H](N(C=O)C2CCCCC2)C1 [Example 44] | 1000 to 10000 |

| SMILES | IC50 [nM] |
| --- | --- |
| CC(C)C(=O)N(C1CCCCC1)[C@H]1CCN(C(=O)[C@@H](Cc2ccc(Cl)cc2)NC(=O)CCN)C1 [Example 45] | < 250 |
| CC(C)C(=O)N(C1CCCCC1)[C@H]1CCN(C(=O)[C@@H](Cc2ccc(Cl)cc2)NC(=O)[C@@H]2CNCCN2)C1 [Example 46] | < 250 |
| CC(C)CN(C(=O)c1ccco1)[C@H]1CCN(C(=O)[C@@H](Cc2ccc(Cl)cc2)NC(=O)CCN)C1 [Example 47] | 1000 to 10000 |
| CC(C)CC(=O)N(CC(C)C)[C@H]1CCN(C(=O)[C@@H](Cc2ccc(Cl)cc2)NC(=O)CCN)C1 [Example 48] | 1000 to 10000 |
| CC(C)CN([C@H]1CCN(C(=O)[C@@H](Cc2ccc(Cl)cc2)NC(=O)CCN)C1)S(C)(=O)=O [Example 49] | 1000 to 10000 |
| CS(=O)(=O)N(C1CCCC1)[C@H]1CCN(C(=O)[C@@H](Cc2ccc(Cl)cc2)NC(=O)CCN)C1 [Example 50] | 1000 to 10000 |
| CC(C)CC(=O)N(C1CCCC1)[C@H]1CCN(C(=O)[C@@H](Cc2ccc(Cl)cc2)NC(=O)CCN)C1 [Example 51] | 250 to 1000 |
| NCCC(=O)N[C@H](Cc1ccc(Cl)cc1)C(=O)N1CC[C@H](N(C(=O)c2ccco2)C2CCCC2)C1 [Example 52] | 1000 to 10000 |
| CC(C)N([C@H]1CCN(C(=O)[C@@H](Cc2ccc(Cl)cc2)NC(=O)CCN)C1)S(C)(=O)=O [Example 53] | 1000 to 10000 |
| CC(C)N(C(=O)c1ccco1)[C@H]1CCN(C(=O)[C@@H](Cc2ccc(Cl)cc2)NC(=O)CCN(C)C)C1 [Example 55] | 1000 to 10000 |
| CN(C)CCC(=O)N[C@H](Cc1ccc(Cl)cc1)C(=O)N1CC[C@H](N(C2CCCCC2)S(C)(=O)=O)C1 [Example 56] | 1000 to 10000 |
| CC(=O)N(C1CCCCC1)[C@H]1CCN(C(=O)[C@@H](Cc2ccc(Cl)cc2)NC(=O)CCN(C)C)C1 [Example 58] | 1000 to 10000 |
| CN(C)CCC(=O)N[C@H](Cc1ccc(Cl)cc1)C(=O)N1CC[C@H](N(C=O)C2CCCCC2)C1 [Example 59] | 1000 to 10000 |
| CC(C)C(=O)N(C1CCCCC1)[C@H]1CCN(C(=O)[C@@H](Cc2ccc(Cl)cc2)NC(=O)CCN(C)C)C1 [Example 60] | < 250 |
| CC(C)CC(=O)N(C1CCCC1)[C@H]1CCN(C(=O)[C@@H](Cc2ccc(Cl)cc2)NC(=O)CCN(C)C)C1 [Example 61] | 1000 to 10000 |
| CC(C)N([C@H]1CCN(C(=O)[C@@H](Cc2ccc(Cl)cc2)NC(=O)CCN(C)C)C1)S(C)(=O)=O [Example 62] | 1000 to 10000 |
| CN(C)CCC(=O)N[C@H](Cc1ccc(Cl)cc1)C(=O)N1CC[C@H](N(C(=O)c2ccco2)C2CCCC2)C1 [Example 64] | 250 to 1000 |
| CC(C)CN(C(=O)c1ccco1)[C@H]1CCN(C(=O)[C@@H](Cc2ccc(Cl)cc2)NC(=O)CCN(C)C)C1 [Example 65] | 1000 to 10000 |
